Test results reported in patent US4634707A, “5-Pyrimidinecarboxamides and treatment of leukemia and tumors therewith” (Uniroyal Chemical Company, priority 1984, dated 1987).
Where “and” joins values, the source holds several entries; their conditions need not be identical. Identical values can stand only once.

How the values were obtained:
M5076 sarcoma = assay: NCI 3M531, i.p.-implanted M5076 sarcoma; assay type: in vivo, murine (mice); set-up: key to Treated/Control percent: (-): toxic dose
Description: (§1) The spectrum of antitumor activity of the compound of Example 1 was determined employing a number of standard National Cancer Institute (NCI) protocols. The antitumor activity was determined in vivo against several different tumors, employing various treatment schedules and routes of administration.
In three experiments involving the i.p. implanted M5076 sarcoma, maximum ILS values of 72, 72 and 48% were achieved after i.p. treatment on days 1, 5, 9 and 13.
(§2) The ratio of the survival time for the treated animals (T) to the survival time for the control animals (C) determined at varying dosages in the respective in vivo tests is set forth in the table: […]

L1210 leukemia [1] = assay: NCI 3LE31, i.p.-implanted L1210 lymphoid leukemia; assay type: in vivo, DBA/2 mice
Description: as §1
Samples of the test compounds of Examples 1-10 and a number of structurally-related control compounds were tested in accordance with National Cancer Institute test protocol 3LE31 (NCI Protocol 1.100, Cancer Chemotherapy Reports Part 3, Vol. 3, No. 2, September 1972) to determine the effects of the several compounds on i.p.-implanted L1210 leukemia (J. Nat'l. Cancer Inst. 13(5):1328, 1953). Each test involved implantation of the leukemia cells in six DBA/2 mice, one sex per experiment, the male mice weighing a minimum of 18 grams and the female mice weighing a minimum of 17 grams, and all of the test animals being within a three gram weight range. The test compound was administered by i.p. injections, in 0.1 ml. doses of diluted ascitic fluid (10^5 cells per dose), commencing one day after the tumor implant and continuing daily for nine days.
The test animals were weighed and survivors recorded on a regular basis during a thirty day test period. The ratio of survival time for the treated and control animals (T/C) was determined as a percentage.
The tests were carried out at varying dosage levels and with varying numbers of repetitions, depending upon the results obtained with each test compoud. […] A reproducible T/C of 150% or higher is considered significant activity.
The number of mice "cured", viz., those surviving from each animal test group after the thirty day test period, is indicated in parenthesis following the T/C percentage data in Table III below: […]

Colon 38 tumor = assay: NCI 3C872, s.c.-implanted colon 38 carcinoma; assay type: in vivo, murine (mice); set-up: key to Treated/Control percent: (-): toxic dose
Description: as §1, §2

P388 leukemia = assay: NCI 3PS31, i.p.-implanted P388 leukemia; assay type: in vivo, murine (mice); set-up: key to Treated/Control percent: (-): toxic dose
Description: as §1, §2

L1210 leukemia [2] = assay: NCI 3LE37, i.c.-implanted L1210 leukemia; assay type: in vivo, murine (mice); set-up: key to Treated/Control percent: (-): toxic dose
Description: as §1, §2

L1210 leukemia [3] = assay: NCI 3LE32, s.c.-implanted L1210 leukemia; assay type: in vivo, murine (mice); set-up: key to Treated/Control percent: (-): toxic dose
Description: as §1, §2

Lewis lung carcinoma = assay: NCI 3LL39, i.v.-implanted Lewis lung carcinoma; assay type: in vivo, murine (mice)
Description: as §1, §2

B16 melanoma = assay: NCI 3B131, i.p.-implanted B16 melanoma; assay type: in vivo, murine (mice)
Description: as §1, §2

L1210 leukemia [4] = assay: Effects of treatment schedule and route of administration against s.c.-implanted L1210 leukemia; assay type: in vivo
Description: The influences of treatment schedule and route of administration on the antitumor activity of the compound of Example 1 were evaluated using the s.c. implanted L1210 leukemia system. The drug was tested in the form of a freeze dried dosage form containing 50 mg. of the compound and 100 mg. N-methylglucamine, reconstituted with 5 ml. of sterile water to yield a 10 mg/ml. solution at about pH 9.5.
The percentage increases in life span (%ILS) are shown in the accompanying drawing for different treatment regimens and routes of administration. […] The highest percent ILS was 471 obtained by daily i.p. injections of the active material on a five day schedule of 45 mg/kg/injection, corresponding to a total dose of 225 mg/kg/duration of the treatment (test C in the drawing). This dosage also gave 5 cures.

MX-1 mammary tumor = assay: NCI 3MBG5, s.r.c. human mammary carcinoma MX-1 xenograft; assay type: in vivo, human tumor xenograft; set-up: key to Treated/Control percent: (-): toxic dose
Description: as §1, §2

CD8F1 mammary tumor = assay: NCI 3CDJ2, s.c.-implanted staged mammary adenocarcinoma CD8F1; assay type: in vivo, murine (mice); set-up: key to Treated/Control percent: (-): toxic dose
Description: as §1, §2

[5] = 50 mg/kg, stated jointly for i.p. and s.c. L1210 systems
[6] = i.p. L1210, i.p. days 1-9 (Table I)
[7] = s.c. L1210, i.p. days 1-9 (Table I)

SMILES: O=C(Nc1ccccc1)c1c(O)[nH]c(=S)[nH]c1=O [Example 1, 1,2,3,4-tetrahydro-6-hydroxy-4-oxo-N-phenyl-2-thioxo-5-pyrimidinecarboxamide]
- Treated/Control percent (M5076 sarcoma; 12.5 mg/kg): 117%
- Treated/Control percent (M5076 sarcoma; 25 mg/kg): 101% and 130%
- Treated/Control percent (M5076 sarcoma; 50 mg/kg): 124% and 147%
- Treated/Control percent (M5076 sarcoma; 100 mg/kg): 148% and 172%
- Treated/Control percent (M5076 sarcoma; 200 mg/kg): (-)
- cures/total (M5076 sarcoma; i.p. M5076, Days 1-13): 2/10
- increase in life-span (% ILS) (M5076 sarcoma; i.p. M5076, i.p. treatment on days 1, 5, 9 and 13, maximum values): 72% and 48%
- maximum increased life spans (L1210 leukemia [1]; [5]): 87-190%
- cures (in words) (L1210 leukemia [1]; 100 mg/kg): produced a number of cures at 100 mg/kg
- curative, share of test mice (L1210 leukemia [1]; 100 mg/kg i.p. daily for 9 days, i.p. L1210): at least 50%
- toxicity of 100 mg/kg dose (L1210 leukemia [1]; 100 mg/kg i.p. daily for 9 days, i.p. system): occasionally demonstrated some toxicity
- activity in i.p.-implanted lymphoid leukemia test (in words) (L1210 leukemia [1]; 3LE31, reproducible T/C of 150% or higher is considered significant activity): exhibited significant activity
- response vs control in vivo at 6.25 mg/kg (L1210 leukemia [1]; Mus musculus, L1210, ip, 6.25 mg/kg i.p. daily for nine days, read-out: T/C % (survival time treated/control)): 116%
- response vs control in vivo at 12.5 mg/kg (L1210 leukemia [1]; Mus musculus, L1210, ip, 12.5 mg/kg i.p. daily for nine days, read-out: T/C % (survival time treated/control)): 117%
- cures/total (L1210 leukemia [1]; [6]): 4/6 and 6/6
- increase in life-span (% ILS) (L1210 leukemia [1]; [6]): > 275% and > 229%
- Treated/Control percent (Colon 38 tumor; 56 mg/kg): 70% and 120%
- Treated/Control percent (Colon 38 tumor; 225 mg/kg): 51%
- Treated/Control percent (Colon 38 tumor; 450 mg/kg): (-)
- Treated/Control percent (Colon 38 tumor; 900 mg/kg): (-)
- effectiveness (in words) (Colon 38 tumor; s.c. implanted colon 38, experimental conditions employed): ineffective
- Treated/Control percent (P388 leukemia; 3.13 mg/kg): 110%
- Treated/Control percent (P388 leukemia; 6.25 mg/kg): 116%
- Treated/Control percent (P388 leukemia; 12.5 mg/kg): 120%
- Treated/Control percent (P388 leukemia; 25 mg/kg): 145% and 138%
- Treated/Control percent (P388 leukemia; 50 mg/kg): 162% and 194% and 201%
- Treated/Control percent (P388 leukemia; 100 mg/kg): (-)
- Treated/Control percent (P388 leukemia; 200 mg/kg): (-)
- increase in life-span (% ILS) (P388 leukemia; i.p. P388, 50 mg/kg i.p. daily, five days, maximum values): 101% and 94% and 62%
- activity (in words) (P388 leukemia; standard NCI P388 preliminary screen): good activity
- Treated/Control percent (L1210 leukemia [2]; 12.5 mg/kg): 94% and 106%
- Treated/Control percent (L1210 leukemia [2]; 25 mg/kg): 98%
- Treated/Control percent (L1210 leukemia [2]; 50 mg/kg): 113% and 108%
- Treated/Control percent (L1210 leukemia [2]; 100 mg/kg): 128% and 134%
- activity (in words) (L1210 leukemia [2]; 100 mg/kg i.p. daily for 9 days): marginal activity
- Treated/Control percent (L1210 leukemia [2]; 200 mg/kg): (-)
- increase in life-span (% ILS) (L1210 leukemia [2]; i.c. L1210, 100 mg/kg i.p. daily for 9 days): 28-34%
- Treated/Control percent (L1210 leukemia [3]; 12.5 mg/kg): 109% and 104%
- Treated/Control percent (L1210 leukemia [3]; 25 mg/kg): 108% and 99%
- Treated/Control percent (L1210 leukemia [3]; 50 mg/kg): 140% and 127%
- maximum increased life spans (L1210 leukemia [3]; [5]): 87-190%
- Treated/Control percent (L1210 leukemia [3]; 100 mg/kg): 300% and 254%
- cures in test at specified dose (L1210 leukemia [3]; 100 mg/kg): 5 and 3
- curative, share of test mice (L1210 leukemia [3]; 100 mg/kg i.p. daily for 9 days, s.c. L1210): at least 50%
- Treated/Control percent (L1210 leukemia [3]; 200 mg/kg): (-)
- cures/total (L1210 leukemia [3]; [7]): 5/6 and 3/6
- increase in life-span (% ILS) (L1210 leukemia [3]; [7]): > 200% and > 154%
- Treated/Control percent (Lewis lung carcinoma; 12.5 mg/kg): 103%
- Treated/Control percent (Lewis lung carcinoma; 25 mg/kg): 106%
- Treated/Control percent (Lewis lung carcinoma; 50 mg/kg): 115%
- Treated/Control percent (Lewis lung carcinoma; 100 mg/kg): 126%
- effectiveness (in words) (Lewis lung carcinoma; i.v. implanted, experimental conditions employed): ineffective
- Treated/Control percent (B16 melanoma; 6 mg/kg): 108%
- Treated/Control percent (B16 melanoma; 12 mg/kg): 128%
- Treated/Control percent (B16 melanoma; 25 mg/kg): 137% and 158%
- Treated/Control percent (B16 melanoma; 50 mg/kg): 152% and 169%
- Treated/Control percent (B16 melanoma; 100 mg/kg): 185% and 193%
- increase in life-span (% ILS) (B16 melanoma; i.p. B16, days 1-9 i.p., optimal values at 100 mg/kg, 100 mg/kg): 93% and 85%
- Activity (ILS) (B16 melanoma; over at least a 4-fold dosage range): 25%
- increases in life span by treatment and route (in words) (L1210 leukemia [4]; all treatments and routes, exceptions tests A and G (i.p. and i.v. one day, one injection)): increases in life span were noted using all treatments and routes of administration save for the i.p. and i.v. one day, one injection treatments
- substantial increases in life span (% ILS) (L1210 leukemia [4]; each route and schedule save single treatment i.p. and i.v.): > 25%
- toxicity (in words) (L1210 leukemia [4]; highest dose in each schedule, exception test F (i.p. every three hours on days one, five and nine)): toxicity was noted with the highest dose in each treatment schedule except for that involving i.p. administration every three hours on days one, five and nine of a nine day test
- cures (L1210 leukemia [4]; test C: daily i.p., five days, 45 mg/kg/injection): 5
- increase in life span (% ILS) (L1210 leukemia [4]; test C: daily i.p., five days, 45 mg/kg/injection, total 225 mg/kg): 471%
- cures (L1210 leukemia [4]; test I: oral daily for nine days, 124 mg/kg/injection): 4
- increase in life span (% ILS) (L1210 leukemia [4]; test I: oral daily for nine days, 124 mg/kg/injection, cumulative 1116 mg/kg): 452%
- Treated/Control percent (MX-1 mammary tumor; 75 mg/kg): 98%
- Treated/Control percent (MX-1 mammary tumor; 150 mg/kg): (-)
- Treated/Control percent (MX-1 mammary tumor; 300 mg/kg): (-)
- Treated/Control percent (MX-1 mammary tumor; 600 mg/kg): (-)
- effectiveness (in words) (MX-1 mammary tumor; s.r.c. xenograft, experimental conditions employed): ineffective
- Treated/Control percent (CD8F1 mammary tumor; 56 mg/kg): 61%
- Treated/Control percent (CD8F1 mammary tumor; 112 mg/kg): 80%
- Treated/Control percent (CD8F1 mammary tumor; 225 mg/kg): (-)
- Treated/Control percent (CD8F1 mammary tumor; 450 mg/kg): (-)
- Treated/Control percent (CD8F1 mammary tumor; 900 mg/kg): (-)
- effectiveness (in words) (CD8F1 mammary tumor; s.c. implanted CD8F1, experimental conditions employed): ineffective
